Laboratory results reported in paper PMC11345828 (Journal of Medicinal Chemistry, 2024).
“And” between values parts separate entries of the source, which are not always exact repeats. Identical values can stand only once. Marks after values point to notes of the source that are not given here.

Assays:
Mouse IV PK = conditions: for AUC/Dose / CL / improvement in the mouse IV clearance from (M)-18: mouse IV; for AUC/Dose: dose normalized; for clearance: mouse, plasma, iv; for improvement in the mouse IV clearance from (M)-18: relative to (M)-18
Procedure: (§3) For PK analysis, mice and dogs were administered intravenously with compound formulated either in 10% ethanol and 10% Cremophor EL for mice or in 50% ethanol and 50% PEG500 for dogs. Plasma samples were obtained at predefined time points and compound concentrations in plasma were measured by quantitative HPLC-MS/MS using an internal standard. Calibration and quality control samples were prepared using blank plasma from untreated animals. Samples were precipitated with acetonitrile and injected into a HPLC system (Agilent 1200). […] The HPLC was interfaced by ESI operated in positive ionization mode to a triple quadrupole mass spectrometer (6500+ Triple Quad System, SCIEX) operated in multiple reaction monitoring mode. Chromatograms were analyzed with Analyst (SCIEX) and pharmacokinetic parameters were calculated by noncompartmental analysis using proprietary software.

NCI-H929 cell line = experiment: cells; conditions: Homo sapiens, NCI-H929, read-out: NCI-H929 GI50
Procedure: (§1) NCI-H1048 were cultured in custom medium prepared by PanBioTech containing DMEM/F12 + 5% fetal calf serum, 0.005 mg/mL insulin, 0.01 mg/mL transferrin, 30 nM sodium selenite, 10 nM hydrocortisone, 10 nM β-estradiol and […] 2 mM L-glutamine.
(§2) Suspension cells were plated immediately before compound addition. Adherent cell lines were incubated overnight at 37 °C in a tissue culture incubator prior to compound addition. Compounds were added in triplicates using an HP D300e Digital Dispenser (Hewlett-Packard) or manually at the concentrations indicated and total volumes were normalized using dimethyl sulfoxide (DMSO) backfill, with final DMSO concentration of 0.5%. Control wells were treated with DMSO only.

K562 cell line = experiment: cells; conditions: Homo sapiens, K562, read-out: K562 GI50
Procedure: as §1, §2

Procedure for Dog IV PK: as §3

Row | Compound | AUC/Dose (Mouse IV PK; dosed at 20 mg/kg) | clearance (Mouse IV PK; 20 mg/kg) | clearance (Mouse IV PK; 25 mg/kg) | CL (Mouse IV PK; dosed at 25 mg/kg) | GI50 (NCI-H929 cell line) | GI50 (K562 cell line) | other results
1 | COc1c(O[C@@H]2CCOC2)cc(N2C[C@@H](C)n3c(c(CCCOc4cc(C)c(Cl)c(C)c4)c4ccc(Cl)c(-c5c(C)nc(C)nc5C)c43)C2=O)c2c1cc(C(=O)O)n2C [Compound 30, 7-((R)-7-Chloro-10-(3-(4-chloro-3,5-dimethylphenoxy)propyl)-4-methyl-1-oxo-6-(2,4,6-trimethylpyrimidin-5-yl)-3,4-dihydropyrazino[1,2-a]indol-2(1H)-yl)-4-methoxy-1-methyl-5-(((R)-tetrahydrofuran-3-yl)oxy)-1H-indole-2-carboxylic Acid] | 1425^d nM*h/mpk | 13 mL/min/kg | 13 mL/min/kg |  |  |  | 
2 | COc1c(OCC2CCOCC2)cc(N2C[C@@H](C)n3c(c(CCCOc4cc(C)c(Cl)c(C)c4)c4ccc(Cl)c(-c5c(C)ncnc5C)c43)C2=O)c2c1cc(C(=O)O)n2C [Compound 22, (R)-7-(7-Chloro-10-(3-(4-chloro-3,5-dimethylphenoxy)propyl)-6-(4,6-dimethylpyrimidin-5-yl)-4-methyl-1-oxo-3,4-dihydropyrazino[1,2-a]indol-2(1H)-yl)-4-methoxy-1-methyl-5-((tetrahydro-2H-pyran-4-yl)methoxy)-1H-indole-2-carboxylic Acid] | 2830^d nM*h/mpk | 7 mL/min/kg | 7 mL/min/kg |  |  |  | 
3 | COc1c(OC[C@H]2CCCO2)cc(N2C[C@@H](C)n3c(c(CCCOc4cc(C)c(Cl)c(C)c4)c4ccc(Cl)c(-c5c(C)ncnc5C)c43)C2=O)c2c1cc(C(=O)O)n2C [Compound 24, 7-((R)-7-Chloro-10-(3-(4-chloro-3,5-dimethylphenoxy)propyl)-6-(4,6-dimethylpyrimidin-5-yl)-4-methyl-1-oxo-3,4-dihydropyrazino[1,2-a]indol-2(1H)-yl)-4-methoxy-1-methyl-5-(((R)-tetrahydrofuran-2-yl)methoxy)-1H-indole-2-carboxylic Acid] |  |  | 15 mL/min/kg | 15 mL/min/kg |  |  | AUC/Dose (Mouse IV PK; dosed at 25 mg/kg): 1476^c nM*h/mpk
4 | COc1c(OC[C@H]2CCCO2)cc(N2C[C@@H](C)n3c(c(CCCOc4cc(C)c(Cl)c(C)c4)c4ccc(Cl)c(-c5c(C)nc(C)nc5C)c43)C2=O)c2c1cc(C(=O)O)n2C [Compound 28, 7-((R)-7-Chloro-10-(3-(4-chloro-3,5-dimethylphenoxy)propyl)-6-(2,4,6-trimethylpyrimidin-5-yl)-4-methyl-1-oxo-3,4-dihydropyrazino[1,2-a]indol-2(1H)-yl)-4-methoxy-1-methyl-5-(((R)-tetrahydrofuran-2-yl)methoxy)-1H-indole-2-carboxylic Acid] | 2510^d nM*h/mpk | 8.4 mL/min/kg | 8.4 mL/min/kg |  |  |  | 
5 | CCOc1c(O[C@H]2CCOC2)cc(N2C[C@@H](C)n3c(c(CCCOc4cc(C)c(Cl)c(C)c4)c4ccc(Cl)c(-c5c(C)nc(C)nc5C)c43)C2=O)c2c1cc(C(=O)O)n2C [Compound 31, 7-((R)-7-Chloro-10-(3-(4-chloro-3,5-dimethylphenoxy)propyl)-4-methyl-1-oxo-6-(2,4,6-trimethylpyrimidin-5-yl)-3,4-dihydropyrazino[1,2-a]indol-2(1H)-yl)-4-ethoxy-1-methyl-5-(((S)-tetrahydrofuran-3-yl)oxy)-1H-indole-2-carboxylic Acid] | 2465^d nM*h/mpk | 8.7 mL/min/kg | 8.7 mL/min/kg |  |  |  | 
6 | COCCOc1cc(N2C[C@@H](C)n3c(c(CCCOc4cc(C)c(Cl)c(C)c4)c4ccc(Cl)c(-c5c(C)ncnc5C)c43)C2=O)c2c(cc(C(=O)O)n2C)c1OC [Compound 21, (R)-7-(7-Chloro-10-(3-(4-chloro-3,5-dimethylphenoxy)propyl)-6-(4,6-dimethylpyrimidin-5-yl)-4-methyl-1-oxo-3,4-dihydropyrazino[1,2-a]indol-2(1H)-yl)-4-methoxy-5-(2-methoxyethoxy)-1-methyl-1H-indole-2-carboxylic Acid] |  |  | 58 mL/min/kg | 58 mL/min/kg | 30 ± 13 nM | > 12000 nM | AUC/Dose (Mouse IV PK; dosed at 25 mg/kg): 290^c nM*h/mpk
7 | COc1c(O[C@H]2CCOC2)cc(N2C[C@@H](C)n3c(c(CCCOc4cc(C)c(Cl)c(C)c4)c4ccc(Cl)c(-c5c(C)nc(C)nc5C)c43)C2=O)c2c1cc(C(=O)O)n2C [Compound 29, 7-((R)-7-Chloro-10-(3-(4-chloro-3,5-dimethylphenoxy)propyl)-4-methyl-1-oxo-6-(2,4,6-trimethylpyrimidin-5-yl)-3,4-dihydropyrazino[1,2-a]indol-2(1H)-yl)-4-methoxy-1-methyl-5-(((S)-tetrahydrofuran-3-yl)oxy)-1H-indole-2-carboxylic Acid] |  |  | 19 mL/min/kg |  |  |  | AUC/Dose (Mouse IV PK; dosed at 5 mg/kg): 1858^e nM*h/mpk; clearance (Mouse IV PK; 5 mg/kg): 19 mL/min/kg; AUC/Dose (Dog IV PK; dosed at 0.9 mg/kg): 1808 nM*h/mpk; CL (Dog IV PK; dosed at 0.9 mg/kg): 12 mL/min/kg; CL (% hep blood flow) (Dog IV PK; dosed at 0.9 mg/kg): 38 % hep blood flow
8 | CCOc1c(OCC2CCOCC2)cc(N2C[C@@H](C)n3c(c(CCCOc4cc(C)c(Cl)c(C)c4)c4ccc(Cl)c(-c5c(C)nc(C)nc5C)c43)C2=O)c2c1cc(C(=O)O)n2C [Compound 32, (R)-7-(7-Chloro-10-(3-(4-chloro-3,5-dimethylphenoxy)propyl)-4-methyl-1-oxo-6-(2,4,6-trimethylpyrimidin-5-yl)-3,4-dihydropyrazino[1,2-a]indol-2(1H)-yl)-4-ethoxy-1-methyl-5-((tetrahydro-2H-pyran-4-yl)methoxy)-1H-indole-2-carboxylic Acid] | 4930^d nM*h/mpk | 3.7 mL/min/kg | 3.7 mL/min/kg |  |  |  | 
9 | COc1c(OC[C@@H]2CCCO2)cc(N2C[C@@H](C)n3c(c(CCCOc4cc(C)c(Cl)c(C)c4)c4ccc(Cl)c(-c5c(C)nc(C)nc5C)c43)C2=O)c2c1cc(C(=O)O)n2C [Compound 27, 7-((R)-7-Chloro-10-(3-(4-chloro-3,5-dimethylphenoxy)propyl)-6-(2,4,6-trimethylpyrimidin-5-yl)-4-methyl-1-oxo-3,4-dihydropyrazino[1,2-a]indol-2(1H)-yl)-4-methoxy-1-methyl-5-(((S)-tetrahydrofuran-2-yl)methoxy)-1H-indole-2-carboxylic Acid] | 2190^d nM*h/mpk | 8.9 mL/min/kg | 8.9 mL/min/kg |  |  |  | AUC/Dose (Dog IV PK; dosed at 0.9 mg/kg): 2100 nM*h/mpk; CL (Dog IV PK; dosed at 0.9 mg/kg): 8.9 mL/min/kg; CL (% hep blood flow) (Dog IV PK; dosed at 0.9 mg/kg): 29 % hep blood flow

Further lines, with some results ahead:

Row | AUC/Dose (Mouse IV PK; dosed at 20 mg/kg) | clearance (Mouse IV PK; 20 mg/kg) | clearance (Mouse IV PK; 25 mg/kg) | CL (Mouse IV PK; dosed at 25 mg/kg) | GI50 (NCI-H929 cell line) | GI50 (K562 cell line) | Compound | other results
10 |  |  | 70 mL/min/kg |  |  |  | COc1cc(N2C[C@@H](C)n3c(c(CCCOc4cc(C)c(Cl)c(C)c4)c4ccc(Cl)c(-c5c(C)nn(C)c5C)c43)C2=O)c2c(cc(C(=O)O)n2C)c1OC [Compound 18, (M,R)-7-(7-Chloro-10-(3-(4-chloro-3,5-dimethylphenoxy)propyl)-4-methyl-1-oxo-6-(1,3,5-trimethyl-1H-pyrazol-4-yl)-3,4-dihydropyrazino[1,2-a]indol-2(1H)-yl)-4,5-dimethoxy-1-methyl-1H-indole-2-carboxylic Acid] | AUC/Dose (Mouse IV PK; dosed at 25 mg/kg): 252 nM*h/mpk
11 |  |  | 43 mL/min/kg | 43 mL/min/kg | 32 ± 14 nM | 7000 nM | COc1cc(N2C[C@@H](C)n3c(c(CCCOc4cc(C)c(Cl)c(C)c4)c4ccc(Cl)c(-c5c(C)ncnc5C)c43)C2=O)c2c(cc(C(=O)O)n2C)c1OC [Compound 19, (R)-7-(7-Chloro-10-(3-(4-chloro-3,5-dimethylphenoxy)propyl)-6-(4,6-dimethylpyrimidin-5-yl)-4-methyl-1-oxo-3,4-dihydropyrazino[1,2-a]indol-2(1H)-yl)-4,5-dimethoxy-1-methyl-1H-indole-2-carboxylic Acid] | AUC/Dose (Mouse IV PK; dosed at 25 mg/kg, 25 mg/kg): 499 nM*h/mpk and 499^c nM*h/mpk; improvement in the mouse IV clearance from (M)-18 (Mouse IV PK): 2 fold
12 |  |  |  |  | 187 ± 78 nM | > 12500 nM | Cc1cc(OCCCc2c3n(c4c(-c5c(C)nn(C)c5C)c(Cl)ccc24)[C@H](C)CN(c2cccc4cc(C(=O)O)n(C)c24)C3=O)cc(C)c1Cl [Compound 10, (R)-7-(7-Chloro-10-(3-(4-chloro-3,5-dimethylphenoxy)propyl)-4-methyl-1-oxo-6-(1,3,5-trimethyl-1H-pyrazol-4-yl)-3,4-dihydropyrazino[1,2-a]indol-2(1H)-yl)-1-methyl-1H-indole-2-carboxylic Acid] | 
13 |  |  | 45 mL/min/kg | 45 mL/min/kg | 33 ± 14 nM | 6800 ± 3300 nM | COc1cc(N2C[C@@H](C)n3c(c(CCCOc4cc(C)c(Cl)c(C)c4)c4ccc(Cl)c(-c5c(C)nc(C)nc5C)c43)C2=O)c2c(cc(C(=O)O)n2C)c1OC [Compound 20, (R)-7-(7-Chloro-10-(3-(4-chloro-3,5-dimethylphenoxy)propyl)-4-methyl-1-oxo-6-(2,4,6-trimethylpyrimidin-5-yl)-3,4-dihydropyrazino[1,2-a]indol-2(1H)-yl)-4,5-dimethoxy-1-methyl-1H-indole-2-carboxylic Acid] | AUC/Dose (Mouse IV PK; dosed at 25 mg/kg, 25 mg/kg): 385 nM*h/mpk and 385^c nM*h/mpk; improvement in the mouse IV clearance from (M)-18 (Mouse IV PK): 2 fold
14 |  |  | 51 mL/min/kg | 51 mL/min/kg | 22 ± 10 nM | > 12000 nM | COCCOc1cc(N2C[C@@H](C)n3c(c(CCCOc4cc(C)c(Cl)c(C)c4)c4ccc(Cl)c(-c5c(C)nc(C)nc5C)c43)C2=O)c2c(cc(C(=O)O)n2C)c1OC [Compound 25, (R)-7-(7-Chloro-10-(3-(4-chloro-3,5-dimethylphenoxy)propyl)-4-methyl-1-oxo-6-(2,4,6-trimethylpyrimidin-5-yl)-3,4-dihydropyrazino[1,2-a]indol-2(1H)-yl)-4-methoxy-5-(2-methoxyethoxy)-1-methyl-1H-indole-2-carboxylic Acid] | AUC/Dose (Mouse IV PK; dosed at 25 mg/kg): 334^c nM*h/mpk; AUC/Dose (Dog IV PK; dosed at 0.25 mg/kg): 1324 nM*h/mpk; CL (Dog IV PK; dosed at 0.25 mg/kg): 16 mL/min/kg; CL (% hep blood flow) (Dog IV PK; dosed at 0.25 mg/kg): 50 % hep blood flow
